Assay results reported in patent US8604023B2, “1,4-benzodiazepinone compounds and their use in treating cancer” (The Regents of the University of Michigan, priority 2009, dated 2013).
pEC50: −log10 of the molar value.

What was measured:
SNB-75 = experiment: cancer cell growth inhibition (SRB); assay type: cell-based, human; details: CNS Cancer
UACC-62 = experiment: cancer cell growth inhibition (SRB); assay type: cell-based, human; details: Melanoma
HCT-116 = experiment: cancer cell growth inhibition (SRB); assay type: cell-based, human; details: Colon Cancer
MDA-MB-435 = experiment: cancer cell growth inhibition (SRB); assay type: cell-based, human; details: Breast Cancer
HCC-2998 = experiment: cancer cell growth inhibition (SRB); assay type: cell-based, human; details: Colon Cancer
NCI/ADR-RES = experiment: cancer cell growth inhibition (SRB); assay type: cell-based, human; details: Breast Cancer
OVCAR-4 = experiment: cancer cell growth inhibition (SRB); assay type: cell-based, human; details: Ovarian Cancer
MDA-MB-231/ATCC = experiment: cancer cell growth inhibition (SRB); assay type: cell-based, human; details: Breast Cancer
UACC-257 = experiment: cancer cell growth inhibition (SRB); assay type: cell-based, human; details: Melanoma
LOXIMVI = experiment: cancer cell growth inhibition (SRB); assay type: cell-based, human; details: Melanoma
BT-549 = experiment: cancer cell growth inhibition (SRB); assay type: cell-based, human; details: Breast Cancer
SW-620 = experiment: cancer cell growth inhibition (SRB); assay type: cell-based, human; details: Colon Cancer
NCI-H460 = experiment: cancer cell growth inhibition (SRB); assay type: cell-based, human; details: Non-Small Cell Lung Cancer
SK-MEL-5 = experiment: cancer cell growth inhibition (SRB); assay type: cell-based, human; details: Melanoma
COLO 205 = experiment: cancer cell growth inhibition (SRB); assay type: cell-based, human; details: Colon Cancer
HCT-15 = experiment: cancer cell growth inhibition (SRB); assay type: cell-based, human; details: Colon Cancer
NCI-H226 = experiment: cancer cell growth inhibition (SRB); assay type: cell-based, human; details: Non-Small Cell Lung Cancer
NCI-H23 = experiment: cancer cell growth inhibition (SRB); assay type: cell-based, human; details: Non-Small Cell Lung Cancer
SK-MEL-28 = experiment: cancer cell growth inhibition (SRB); assay type: cell-based, human; details: Melanoma
CAKI-1 = experiment: cancer cell growth inhibition (SRB); assay type: cell-based, human; details: Renal Cancer
IGROV1 = experiment: cancer cell growth inhibition (SRB); assay type: cell-based, human; details: Ovarian Cancer
UO-31 = experiment: cancer cell growth inhibition (SRB); assay type: cell-based, human; details: Renal Cancer
MALME-3M = experiment: cancer cell growth inhibition (SRB); assay type: cell-based, human; details: Melanoma
OVCAR-5 = experiment: cancer cell growth inhibition (SRB); assay type: cell-based, human; details: Ovarian Cancer
DU-145 = experiment: cancer cell growth inhibition (SRB); assay type: cell-based, human; details: Prostate Cancer
SNB-19 = experiment: cancer cell growth inhibition (SRB); assay type: cell-based, human; details: CNS Cancer
TK-10 = experiment: cancer cell growth inhibition (SRB); assay type: cell-based, human; details: Renal Cancer
SK-OV-3 = experiment: cancer cell growth inhibition (SRB); assay type: cell-based, human; details: Ovarian Cancer
U251 = experiment: cancer cell growth inhibition (SRB); assay type: cell-based, human; details: CNS Cancer
M14 = experiment: cancer cell growth inhibition (SRB); assay type: cell-based, human; details: Melanoma
CCRF-CEM = experiment: cancer cell growth inhibition (SRB); assay type: cell-based, human; details: Leukemia
786-0 = experiment: cancer cell growth inhibition (SRB); assay type: cell-based, human; details: Renal Cancer
MOLT-4 = experiment: cancer cell growth inhibition (SRB); assay type: cell-based, human; details: Leukemia
HS 578T = experiment: cancer cell growth inhibition (SRB); assay type: cell-based, human; details: Breast Cancer
HOP-62 = experiment: cancer cell growth inhibition (SRB); assay type: cell-based, human; details: Non-Small Cell Lung Cancer
OVCAR-8 = experiment: cancer cell growth inhibition (SRB); assay type: cell-based, human; details: Ovarian Cancer
EKVX = experiment: cancer cell growth inhibition (SRB); assay type: cell-based, human; details: Non-Small Cell Lung Cancer
A498 = experiment: cancer cell growth inhibition (SRB); assay type: cell-based, human; details: Renal Cancer
NCI-H522 = experiment: cancer cell growth inhibition (SRB); assay type: cell-based, human; details: Non-Small Cell Lung Cancer
ACHN = experiment: cancer cell growth inhibition (SRB); assay type: cell-based, human; details: Renal Cancer
SK-MEL-2 = experiment: cancer cell growth inhibition (SRB); assay type: cell-based, human; details: Melanoma
MCF7 = experiment: cancer cell growth inhibition (SRB); assay type: cell-based, human; details: Breast Cancer
OVCAR-3 = experiment: cancer cell growth inhibition (SRB); assay type: cell-based, human; details: Ovarian Cancer
PC-3 = experiment: cancer cell growth inhibition (SRB); assay type: cell-based, human; details: Prostate Cancer
HL-60(TB) = experiment: cancer cell growth inhibition (SRB); assay type: cell-based, human; details: Leukemia
SF-268 = experiment: cancer cell growth inhibition (SRB); assay type: cell-based, human; details: CNS Cancer
SF-539 = experiment: cancer cell growth inhibition (SRB); assay type: cell-based, human; details: CNS Cancer
HT29 = experiment: cancer cell growth inhibition (SRB); assay type: cell-based, human; details: Colon Cancer
K-562 = experiment: cancer cell growth inhibition (SRB); assay type: cell-based, human; details: Leukemia
RPMI-8226 = experiment: cancer cell growth inhibition (SRB); assay type: cell-based, human; details: Leukemia
T-47D = experiment: cancer cell growth inhibition (SRB); assay type: cell-based, human; details: Breast Cancer
RXF 393 = experiment: cancer cell growth inhibition (SRB); assay type: cell-based, human; details: Renal Cancer
Ramos cells = experiment: cytotoxicity in Ramos cells; assay type: cell-based; details: Homo sapiens
Procedure: The compounds listed in Table 5 were tested for cytotoxicity in Ramos cells. The assay was conducted as described in K. M. Johnson et al. Chemistry & Biology 2005, 12, 485-496.

NCI-H322M = experiment: cancer cell growth inhibition (SRB); assay type: cell-based, human; details: Non-Small Cell Lung Cancer
SR = experiment: cancer cell growth inhibition (SRB); assay type: cell-based, human; details: Leukemia
HOP-92 = experiment: cancer cell growth inhibition (SRB); assay type: cell-based, human; details: Non-Small Cell Lung Cancer
SF-295 = experiment: cancer cell growth inhibition (SRB); assay type: cell-based, human; details: CNS Cancer
A549/ATCC = experiment: cancer cell growth inhibition (SRB); assay type: cell-based, human; details: Non-Small Cell Lung Cancer
SN12C = experiment: cancer cell growth inhibition (SRB); assay type: cell-based, human; details: Renal Cancer
KM12 = experiment: cancer cell growth inhibition (SRB); assay type: cell-based, human; details: Colon Cancer

O=C1Nc2ccc(Cl)cc2C(c2ccc(N3CCNCC3)nc2)=NC1Cc1ccccc1Cl (stereo not drawn) [Compound V-23]
growth inhibition of the cancer cells (SNB-75): ++ (40%-75% growth inhibition of the cancer cells) | growth inhibition of the cancer cells (UACC-62): ++ (40%-75% growth inhibition of the cancer cells) | growth inhibition of the cancer cells (HCT-116): +++ (at least 75% growth inhibition of the cancer cells) | growth inhibition of the cancer cells (MDA-MB-435): +++ (at least 75% growth inhibition of the cancer cells) | growth inhibition of the cancer cells (HCC-2998): +++ (at least 75% growth inhibition of the cancer cells) | growth inhibition of the cancer cells (NCI/ADR-RES): + (less than 40% growth inhibition of the cancer cells) | growth inhibition of the cancer cells (OVCAR-4): ++ (40%-75% growth inhibition of the cancer cells) | growth inhibition of the cancer cells (MDA-MB-231/ATCC): +++ (at least 75% growth inhibition of the cancer cells) | growth inhibition of the cancer cells (UACC-257): +++ (at least 75% growth inhibition of the cancer cells) | growth inhibition of the cancer cells (LOXIMVI): +++ (at least 75% growth inhibition of the cancer cells) | growth inhibition of the cancer cells (BT-549): +++ (at least 75% growth inhibition of the cancer cells) | growth inhibition of the cancer cells (SW-620): +++ (at least 75% growth inhibition of the cancer cells) | growth inhibition of the cancer cells (NCI-H460): +++ (at least 75% growth inhibition of the cancer cells) | growth inhibition of the cancer cells (SK-MEL-5): +++ (at least 75% growth inhibition of the cancer cells) | growth inhibition of the cancer cells (COLO 205): ++ (40%-75% growth inhibition of the cancer cells) | growth inhibition of the cancer cells (HCT-15): +++ (at least 75% growth inhibition of the cancer cells) | growth inhibition of the cancer cells (NCI-H226): + (less than 40% growth inhibition of the cancer cells) | growth inhibition of the cancer cells (NCI-H23): ++ (40%-75% growth inhibition of the cancer cells) | growth inhibition of the cancer cells (SK-MEL-28): +++ (at least 75% growth inhibition of the cancer cells) | growth inhibition of the cancer cells (CAKI-1): +++ (at least 75% growth inhibition of the cancer cells) | growth inhibition of the cancer cells (IGROV1): +++ (at least 75% growth inhibition of the cancer cells) | growth inhibition of the cancer cells (UO-31): +++ (at least 75% growth inhibition of the cancer cells) | growth inhibition of the cancer cells (MALME-3M): +++ (at least 75% growth inhibition of the cancer cells) | growth inhibition of the cancer cells (OVCAR-5): +++ (at least 75% growth inhibition of the cancer cells) | growth inhibition of the cancer cells (DU-145): +++ (at least 75% growth inhibition of the cancer cells) | growth inhibition of the cancer cells (SNB-19): ++ (40%-75% growth inhibition of the cancer cells) | growth inhibition of the cancer cells (TK-10): +++ (at least 75% growth inhibition of the cancer cells) | growth inhibition of the cancer cells (SK-OV-3): ++ (40%-75% growth inhibition of the cancer cells) | growth inhibition of the cancer cells (U251): +++ (at least 75% growth inhibition of the cancer cells) | growth inhibition of the cancer cells (M14): +++ (at least 75% growth inhibition of the cancer cells) | growth inhibition of the cancer cells (CCRF-CEM): ++ (40%-75% growth inhibition of the cancer cells) | growth inhibition of the cancer cells (786-0): +++ (at least 75% growth inhibition of the cancer cells) | growth inhibition of the cancer cells (MOLT-4): ++ (40%-75% growth inhibition of the cancer cells) | growth inhibition of the cancer cells (HS 578T): ++ (40%-75% growth inhibition of the cancer cells) | growth inhibition of the cancer cells (HOP-62): +++ (at least 75% growth inhibition of the cancer cells) | growth inhibition of the cancer cells (OVCAR-8): ++ (40%-75% growth inhibition of the cancer cells) | growth inhibition of the cancer cells (EKVX): +++ (at least 75% growth inhibition of the cancer cells) | growth inhibition of the cancer cells (A498): + (less than 40% growth inhibition of the cancer cells) | growth inhibition of the cancer cells (NCI-H522): +++ (at least 75% growth inhibition of the cancer cells) | growth inhibition of the cancer cells (ACHN): +++ (at least 75% growth inhibition of the cancer cells) | growth inhibition of the cancer cells (SK-MEL-2): ++ (40%-75% growth inhibition of the cancer cells) | growth inhibition of the cancer cells (MCF7): +++ (at least 75% growth inhibition of the cancer cells) | growth inhibition of the cancer cells (OVCAR-3): +++ (at least 75% growth inhibition of the cancer cells) | growth inhibition of the cancer cells (PC-3): ++ (40%-75% growth inhibition of the cancer cells) | growth inhibition of the cancer cells (HL-60(TB)): +++ (at least 75% growth inhibition of the cancer cells) | growth inhibition of the cancer cells (SF-268): ++ (40%-75% growth inhibition of the cancer cells) | growth inhibition of the cancer cells (SF-539): +++ (at least 75% growth inhibition of the cancer cells) | growth inhibition of the cancer cells (HT29): +++ (at least 75% growth inhibition of the cancer cells) | growth inhibition of the cancer cells (K-562): +++ (at least 75% growth inhibition of the cancer cells) | growth inhibition of the cancer cells (RPMI-8226): ++ (40%-75% growth inhibition of the cancer cells) | growth inhibition of the cancer cells (T-47D): ++ (40%-75% growth inhibition of the cancer cells) | growth inhibition of the cancer cells (RXF 393): +++ (at least 75% growth inhibition of the cancer cells) | pEC50 (Ramos cells): ≥ 5.30 | growth inhibition of the cancer cells (NCI-H322M): + (less than 40% growth inhibition of the cancer cells) | growth inhibition of the cancer cells (SR): ++ (40%-75% growth inhibition of the cancer cells) | growth inhibition of the cancer cells (HOP-92): ++ (40%-75% growth inhibition of the cancer cells) | growth inhibition of the cancer cells (SF-295): +++ (at least 75% growth inhibition of the cancer cells) | growth inhibition of the cancer cells (A549/ATCC): +++ (at least 75% growth inhibition of the cancer cells) | growth inhibition of the cancer cells (SN12C): +++ (at least 75% growth inhibition of the cancer cells) | growth inhibition of the cancer cells (KM12): +++ (at least 75% growth inhibition of the cancer cells)
